Patent US20100267697A1, “ION CHANNEL MODULATORS” (Wyeth, priority 2006, published 2010)
Where two headings read alike, the source gives them in different places.

Columns and labels:
[1] = molecular target: Cav2.2 (UniProt Q02294); assay: Oocyte assay (Xenopus oocyte heterologous expression, current at fifth pulse P5); format: cell-based; conditions: Xenopus oocytes; fifth pulse (P5) of 5 Hz train, holding potential −100 mV
Experimental: The assay was performed on various calcium channels (e.g., Cav2.2 subfamily) whereby the modulation of the calcium channel was measured for each tested compound.

[2] = molecular target: T1, Cav2.2 (Homo sapiens, UniProt Q00975); assay: HEK assay (whole-cell patch clamp, transiently transfected HEK-293T/17 cells, pulses P1 and P5); format: cell-based; conditions: holding potential −100 mV
T1 construct: expressed in transfected cells; host or cells: HEK-293T/17 (transient, FuGENE 6)
How it was run: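 Whole-cell voltage clamp of HEK-293T/17 cells transiently transfected via FuGENE 6, then grown 24 h in 1% serum before recording. From −100 mV holding, trains of five 20–30 ms steps to about +10 mV at 5 Hz, repeated every 30 s; steady-state IC50s taken at first (P1) and fifth (P5) pulses to gauge use-dependent block.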

[3] = fifth pulse (P5) of 5 Hz train, read-out: HEK Cav2.2 P5 IC50
[4] = first pulse (P1) of 5 Hz train, read-out: HEK Cav2.2 P1 IC50

T1 sequence (Q00975 whole entry): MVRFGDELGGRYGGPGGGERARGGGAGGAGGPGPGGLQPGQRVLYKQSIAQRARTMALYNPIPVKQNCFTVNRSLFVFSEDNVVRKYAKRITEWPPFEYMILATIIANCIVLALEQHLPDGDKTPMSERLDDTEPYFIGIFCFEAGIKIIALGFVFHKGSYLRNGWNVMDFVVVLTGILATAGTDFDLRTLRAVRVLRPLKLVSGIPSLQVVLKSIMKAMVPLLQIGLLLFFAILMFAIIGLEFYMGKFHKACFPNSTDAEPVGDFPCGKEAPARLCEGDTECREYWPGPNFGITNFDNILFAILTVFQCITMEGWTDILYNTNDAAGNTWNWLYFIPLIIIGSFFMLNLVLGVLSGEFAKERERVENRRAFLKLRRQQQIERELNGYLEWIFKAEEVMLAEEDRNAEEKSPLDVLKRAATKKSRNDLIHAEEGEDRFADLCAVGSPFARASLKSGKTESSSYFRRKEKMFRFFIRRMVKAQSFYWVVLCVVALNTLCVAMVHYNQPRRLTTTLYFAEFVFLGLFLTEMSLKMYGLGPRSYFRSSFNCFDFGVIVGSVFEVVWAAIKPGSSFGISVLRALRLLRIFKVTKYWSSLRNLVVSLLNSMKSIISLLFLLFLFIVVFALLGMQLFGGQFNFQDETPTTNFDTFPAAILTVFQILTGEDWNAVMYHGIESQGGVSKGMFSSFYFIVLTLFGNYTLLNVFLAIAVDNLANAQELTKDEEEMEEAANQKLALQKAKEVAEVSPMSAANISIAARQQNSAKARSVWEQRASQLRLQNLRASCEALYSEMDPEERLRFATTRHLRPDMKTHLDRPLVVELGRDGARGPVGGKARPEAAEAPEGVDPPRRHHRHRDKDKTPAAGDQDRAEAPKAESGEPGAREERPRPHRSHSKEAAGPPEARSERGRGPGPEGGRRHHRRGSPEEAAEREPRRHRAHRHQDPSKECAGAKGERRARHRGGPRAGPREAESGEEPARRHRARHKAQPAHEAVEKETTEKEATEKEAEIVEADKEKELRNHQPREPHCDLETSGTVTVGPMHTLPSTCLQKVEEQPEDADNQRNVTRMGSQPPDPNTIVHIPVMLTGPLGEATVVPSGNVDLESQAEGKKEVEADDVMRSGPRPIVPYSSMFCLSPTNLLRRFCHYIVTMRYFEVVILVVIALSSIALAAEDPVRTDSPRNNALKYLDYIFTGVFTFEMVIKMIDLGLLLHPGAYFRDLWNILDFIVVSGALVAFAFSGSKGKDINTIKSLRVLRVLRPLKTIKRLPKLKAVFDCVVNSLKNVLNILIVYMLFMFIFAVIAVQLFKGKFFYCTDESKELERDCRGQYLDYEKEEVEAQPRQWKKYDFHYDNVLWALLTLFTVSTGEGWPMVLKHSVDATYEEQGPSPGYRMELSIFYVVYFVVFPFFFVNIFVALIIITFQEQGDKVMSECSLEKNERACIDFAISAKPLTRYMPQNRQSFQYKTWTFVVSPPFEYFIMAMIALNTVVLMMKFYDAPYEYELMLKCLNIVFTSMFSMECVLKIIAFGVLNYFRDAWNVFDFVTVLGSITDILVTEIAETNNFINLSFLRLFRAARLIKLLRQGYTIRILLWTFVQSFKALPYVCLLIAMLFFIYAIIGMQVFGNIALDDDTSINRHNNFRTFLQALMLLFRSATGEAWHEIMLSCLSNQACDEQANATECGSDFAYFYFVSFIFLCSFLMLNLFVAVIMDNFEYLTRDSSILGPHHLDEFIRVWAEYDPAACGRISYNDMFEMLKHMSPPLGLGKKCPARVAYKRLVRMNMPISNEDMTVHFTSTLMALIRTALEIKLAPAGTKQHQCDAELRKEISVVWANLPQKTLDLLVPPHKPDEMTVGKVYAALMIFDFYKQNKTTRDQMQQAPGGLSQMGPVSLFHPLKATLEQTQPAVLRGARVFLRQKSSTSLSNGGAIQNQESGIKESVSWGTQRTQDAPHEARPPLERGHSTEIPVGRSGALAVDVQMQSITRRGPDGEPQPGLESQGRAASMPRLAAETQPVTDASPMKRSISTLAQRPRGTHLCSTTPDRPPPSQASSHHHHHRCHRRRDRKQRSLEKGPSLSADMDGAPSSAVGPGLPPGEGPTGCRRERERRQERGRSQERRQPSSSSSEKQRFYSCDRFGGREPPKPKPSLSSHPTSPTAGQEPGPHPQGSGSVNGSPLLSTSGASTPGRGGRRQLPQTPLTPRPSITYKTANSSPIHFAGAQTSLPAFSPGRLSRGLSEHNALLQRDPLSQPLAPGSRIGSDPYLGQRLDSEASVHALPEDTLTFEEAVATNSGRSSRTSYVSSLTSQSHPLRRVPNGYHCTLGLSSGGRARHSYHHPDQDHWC
T1 sequence (P54284 whole entry partner): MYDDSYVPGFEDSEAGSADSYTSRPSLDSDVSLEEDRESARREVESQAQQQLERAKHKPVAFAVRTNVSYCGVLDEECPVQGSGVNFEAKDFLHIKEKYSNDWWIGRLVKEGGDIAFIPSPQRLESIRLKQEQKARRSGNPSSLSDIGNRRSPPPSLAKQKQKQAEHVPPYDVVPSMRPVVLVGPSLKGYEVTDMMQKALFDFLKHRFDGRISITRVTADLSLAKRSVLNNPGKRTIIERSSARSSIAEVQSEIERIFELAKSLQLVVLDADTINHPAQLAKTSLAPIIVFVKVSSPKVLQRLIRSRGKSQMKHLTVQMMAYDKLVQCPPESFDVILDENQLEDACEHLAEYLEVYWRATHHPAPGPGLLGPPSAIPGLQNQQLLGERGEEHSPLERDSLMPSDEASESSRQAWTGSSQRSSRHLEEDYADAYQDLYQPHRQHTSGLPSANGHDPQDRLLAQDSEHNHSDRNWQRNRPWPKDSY
T1 sequence (P54289 25-946 partner limits assumed): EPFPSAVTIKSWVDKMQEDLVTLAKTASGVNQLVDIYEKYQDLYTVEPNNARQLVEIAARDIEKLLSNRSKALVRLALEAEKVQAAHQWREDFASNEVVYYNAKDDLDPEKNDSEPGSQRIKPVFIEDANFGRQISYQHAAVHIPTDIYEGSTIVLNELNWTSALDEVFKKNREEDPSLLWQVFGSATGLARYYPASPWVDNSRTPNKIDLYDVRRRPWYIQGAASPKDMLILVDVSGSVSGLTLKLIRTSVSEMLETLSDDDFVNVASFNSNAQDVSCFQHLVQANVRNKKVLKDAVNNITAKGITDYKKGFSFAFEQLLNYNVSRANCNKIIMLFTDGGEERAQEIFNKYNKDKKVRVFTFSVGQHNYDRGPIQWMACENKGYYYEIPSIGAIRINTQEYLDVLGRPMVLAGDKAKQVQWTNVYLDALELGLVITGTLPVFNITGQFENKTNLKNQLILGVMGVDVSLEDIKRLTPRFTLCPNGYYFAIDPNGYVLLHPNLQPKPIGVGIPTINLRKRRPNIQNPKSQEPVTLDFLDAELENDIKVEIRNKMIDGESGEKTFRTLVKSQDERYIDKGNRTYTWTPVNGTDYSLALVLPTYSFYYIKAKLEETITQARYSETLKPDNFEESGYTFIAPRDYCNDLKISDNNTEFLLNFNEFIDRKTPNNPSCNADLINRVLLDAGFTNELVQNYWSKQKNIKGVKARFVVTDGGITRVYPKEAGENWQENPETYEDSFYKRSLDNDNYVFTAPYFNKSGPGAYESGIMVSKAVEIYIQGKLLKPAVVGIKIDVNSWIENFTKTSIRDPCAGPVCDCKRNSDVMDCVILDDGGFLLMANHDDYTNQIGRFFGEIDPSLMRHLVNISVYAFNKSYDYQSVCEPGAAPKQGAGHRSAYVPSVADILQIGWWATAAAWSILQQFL
T1 sequence (P54289 947-1103 partner limits assumed): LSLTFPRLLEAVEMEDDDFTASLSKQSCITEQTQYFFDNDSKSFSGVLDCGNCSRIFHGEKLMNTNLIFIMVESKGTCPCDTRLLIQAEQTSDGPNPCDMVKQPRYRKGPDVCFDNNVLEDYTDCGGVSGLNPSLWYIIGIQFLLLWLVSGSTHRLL

Structure (SMILES)	IC50 [1] [µM]	IC50 [2, 3] [µM]	IC50 [2, 4] [µM]
CN(CCc1cccnc1)c1ccc(CN(C(=O)C(C)(C)C)c2ccc(F)cc2)cn1 [Compound 27, N-(4-Fluorophenyl)-2,2-dimethyl-N-{6-[methyl-(2-pyridin-3-yl-ethyl)-amino]-pyridin-3-ylmethyl}-propionamide]	5.2	1.1	4.6
CCN(CC)c1ccc(CN(C(=O)C(C)(C)CC)c2ccc(F)cc2)cn1 [Compound 31, N-(6-Diethylamino-pyridin-3-ylmethyl)-N-(4-fluorophenyl)-2,2-dimethyl-butyramide]	6.6	1.3	5.5
CC(C)(C)C(=O)N(Cc1ccc(N2CCC(N3CCOCC3)CC2)nc1)c1ccc(F)cc1 [Compound 33, N-(4-Fluorophenyl)-2,2-dimethyl-N-(4-morpholin-4-yl-3,4,5,6-tetrahydro-2H-[1,2′]bipyridinyl-5′-ylmethyl)-propionamide]	22.9	11.5	37.6
CC(C)(C)C(=O)N(Cc1ccc(N2CCCCC2)nc1)c1ccc(F)cc1 [Compound 70, N-(4-Fluorophenyl)-2,2-dimethyl-N-(3,4,5,6-tetrahydro-2H-[1,2′]bipyridinyl-5′-ylmethyl)-propionamide]	9.8	1.9	12.1
CCN(c1nc(CN(C(=O)C(C)(C)C)c2ccc(F)cc2)cs1)C1CC1 [Compound 83, N-[2-(Cyclopropyl(ethyl)amino)-thiazol-4-ylmethyl]-N-(4-fluorophenyl)-2,2-dimethyl-propionamide]	7.1	1	3.3

Next, values leading:

IC50 [1] [µM]	IC50 [2, 3] [µM]	IC50 [2, 4] [µM]	Structure (SMILES)
8.7	1	5.2	CN(CCOc1ccccn1)c1ccc(CN(C(=O)C(C)(C)C)c2ccc(F)cc2)cn1 [Compound 29, N-(4-Fluorophenyl)-2,2-dimethyl-N-(6-{methyl-[2-(pyridin-2-yloxy)-ethyl]-amino}-pyridin-3-ylmethyl)-propanamide]
23.6	2.7	18.9	CC(C)c1ccccc1N(Cc1ccc(N2CCN(C)CC2)nc1)C(=O)C(C)(C)C [Compound 30, N-(2-Isopropyl-phenyl)-2,2-dimethyl-N-[6-(4-methyl-piperazin-1-yl)-pyridin-3-ylmethyl]-propionamide]
21.2	2.6	24.5	Cc1cc(C)cc(N(Cc2ccc(N3CCN(C)CC3)nc2)C(=O)C(C)(C)C)c1 [Compound 32, N-(3,5-dimethylphenyl)-2,2-dimethyl-N-[6-(4-methyl-piperazin-1-yl)-pyridin-3-ylmethyl]-propionamide]
19.6	2.4	5.5	CC(C)(C)C(=O)N(Cc1ccc(N2CCC(N3CCCC3)CC2)nc1)c1ccc(F)cc1 [Compound 34, N-(4-Fluorophenyl)-2,2-dimethyl-N-(4-pyrrolidin-1-yl-3,4,5,6-tetrahydro-2H-[1,2′]bipyridinyl-5′-ylmethyl)-propionamide]
13.2	1.4	4.4	CCC(C)(C)C(=O)N(Cc1ccc(N2CCN(C)CC2)nc1)c1ccccc1C(C)C [Compound 35, N-(2-Isopropyl-phenyl)-2,2-dimethyl-N-[6-(4-methyl-piperazin-1-yl)-pyridin-3-ylmethyl]-butyramide]
18.3	2.4	6	CCN(CC)c1nc(CN(C(=O)C(C)(C)C)c2ccc(F)cc2)cs1 [Compound 64, N-(2-Diethylamino-thiazol-4-ylmethyl)-N-(4-fluorophenyl)-2,2-dimethyl-propionamide]
1.7	0.6	2	CN(C)c1ccc(N(Cc2csc(N(C)c3ccc(F)cc3)n2)C(=O)C(C)(C)C)cc1 [Compound 81, N-(4-Dimethylamino-phenyl)-N-{2-[(4-fluorophenyl)-methyl-amino]-thiazol-4-ylmethyl}-2,2-dimethyl-propionamide]
